# Measured values taken from US20080021026A1, “BENZOTHIOPHENE INHIBITORS OF RHO KINASE” (priority 2006, published 2008).
# Molecular target: T1, recombinant N-terminal GST-tagged human Rho kinase 2 (ROCK2, amino acids 1-552) (Homo sapiens, UniProt O75116)
# T1 construct: ROCK2, amino acids 1-552; purchased Invitrogen Inc. PV3759
# Assay: In vitro Rho kinase assay (luciferase-based ATP consumption), ROCK2
# Type: biochemical
# Conditions: ROCK2 IC50, recombinant GST-tagged human ROCK2, luciferase-based ATP consumption
# Method: In Vitro Rho Kinase Assay
# Rho kinase biochemical assays described below depend on firefly luciferase-based, indirect measurement of total ATP consumption by the kinase following incubation with substrate and ATP. 25 μl of Rho kinase assay buffer (20 mM Tris-HCL [pH 7.5], 1 mM MgCl2, 0.4 mM CaCl2, 0.15 mM EGTA, 0.1 mg/ml bovine serum albumin) containing 0.82 μg/ml of recombinant N-terminal GST-tagged human Rho kinase 1 (ROCK1, amino acids 1-535, Invitrogen Inc., cat. #PV-3691) or recombinant N-terminal GST-tagged human Rho kinase 2 (ROCK2, amino acids 1-552, Invitrogen Inc., cat #PV3759), 100 μg/ml S6 peptide substrate (related to amino acids 218-249 of the human 40S ribosomal protein S6, and suitable for ROCK1 or ROCK2, e.g. Upstate/Millipore Inc., cat #12-420), and 3 µM ATP are dispensed to wells of a 384 multi-well opaque plate. The plate is centrifuged for 30 seconds at approximately 200×g. 240 nl of test compound in DMSO is dispensed to each well by passive pin transfer. The lag phase of this in vitro kinase reaction permits addition of compounds soon after the reaction initiates. The reaction is allowed to incubate at 30° C. for 2 hours. The assay plates are sealed and maintained in a humidified environment. After 2 hours, 25 μl of easylite protein kinase assay reagent (Perkin-Elmer, Inc.) is dispensed. After an additional 10 minute incubation at room temperature (about 22° C.), luminescence activity is measured on a Molecular Devices Analyst multi-mode plate reader or other suitable plate reader. Kinase inhibition results in less ATP consumption, and therefore increased luminescence signal. Negative control activity is measured with DMSO lacking any test compound. The positive control is 2-methyl-1-(4-methylisoquinolin-5-ylsulfonyl)perhydro-1,4-diazepine hydrochloride (aka H-1152P, HCl salt). Efficacy is measured as a percentage of positive control activity. […] In some cases, kinase reactions and compound testing are performed in 1536 multi-well plates under similar conditions, with assay volumes appropriately scaled. The designation NT means the cited example was not tested.
# T1 sequence (O75116 1-552): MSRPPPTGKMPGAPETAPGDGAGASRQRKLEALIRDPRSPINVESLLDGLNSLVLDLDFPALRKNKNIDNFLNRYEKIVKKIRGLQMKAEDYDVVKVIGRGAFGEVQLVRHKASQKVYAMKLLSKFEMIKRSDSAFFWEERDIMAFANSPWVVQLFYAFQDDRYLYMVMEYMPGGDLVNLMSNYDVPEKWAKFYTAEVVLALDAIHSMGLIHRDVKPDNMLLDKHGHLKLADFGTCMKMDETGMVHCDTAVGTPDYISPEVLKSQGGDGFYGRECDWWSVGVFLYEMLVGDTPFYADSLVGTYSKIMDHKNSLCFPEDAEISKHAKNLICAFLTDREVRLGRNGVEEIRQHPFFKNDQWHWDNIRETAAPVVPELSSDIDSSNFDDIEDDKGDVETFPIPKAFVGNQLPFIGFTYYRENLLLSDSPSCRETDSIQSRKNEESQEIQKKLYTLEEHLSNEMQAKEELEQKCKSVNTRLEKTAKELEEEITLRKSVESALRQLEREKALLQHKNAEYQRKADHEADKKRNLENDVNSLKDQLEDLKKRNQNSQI
row,Structure (SMILES),IC50 [µM]
1,"Cc1c(-c2ccnc(N)n2)sc2ccc(C(=O)NCc3ccccc3Cl)cc12 [Example 409, Cc1c(sc2ccc(cc12)C(═O)NCc3ccccc3Cl)-c4ccnc(N)n4]",< 5

# Same assay, conditions: recombinant GST-tagged human ROCK2, luciferase-based ATP consumption; read-out: ROCK2 IC50
row,Structure (SMILES),IC50 [µM]
1,"COCC(C)NC(=O)c1ccc2sc(-c3ccnc(N)n3)c(C)c2c1 (stereo not shown) [Example 352, COCC(C)NC(═O)c1ccc2sc(c(C)c2c1)-c3ccnc(N)n3]",> 5
2,"Cc1c(-c2ccnc(N)n2)sc2ccc(C(=O)N3CCN(c4ccc(Cl)cc4)CC3)cc12 [Example 545, Cc1c(sc2ccc(cc12)C(═O)N3CCN(CC3)c4ccc(Cl)cc4)-c5ccnc(N)n5]",> 5
3,"COc1ccccc1N1CCN(C(=O)c2ccc3sc(-c4ccnc(N)n4)c(C)c3c2)CC1 [Example 541, COc1ccccc1N2CCN(CC2)C(═O)c3ccc4sc(c(C)c4c3)-c5ccnc(N)n5]",> 5
4,"Cc1ccc(N2CCN(C(=O)c3ccc4sc(-c5ccnc(N)n5)c(C)c4c3)CC2)c(C)c1 [Example 538, Cc1ccc(N2CCN(CC2)C(═O)c3ccc4sc(c(C)c4c3)-c5ccnc(N)n5)c(C)c1]",> 5
5,"Cc1c(-c2ccnc(N)n2)sc2ccc(C(=O)NC(C)CCCC(C)C)cc12 (stereo not shown) [Example 388, CC(C)CCCC(C)NC(═O)c1ccc2sc(c(C)c2c1)-c3ccnc(N)n3]",> 5
6,"Cc1c(-c2ccnc(N)n2)sc2ccc(C(=O)NCc3ccc(Cl)c(Cl)c3)cc12 [Example 446, Cc1c(sc2ccc(cc12)C(═O)NCc3ccc(Cl)c(Cl)c3)-c4ccnc(N)n4]",> 5
7,"Cc1c(-c2ccnc(N)n2)sc2ccc(C(=O)NCc3ccc(C(C)C)cc3)cc12 [Example 419, CC(C)c1ccc(CNC(═O)c2ccc3sc(c(C)c3c2)-c4ccnc(N)n4)cc1]",< 5
8,"Cc1ccc(N2CCN(C(=O)c3ccc4sc(-c5ccnc(N)n5)c(C)c4c3)CC2)cc1C [Example 537, Cc1ccc(cc1C)N2CCN(CC2)C(═O)c3ccc4sc(c(C)c4c3)-c5ccnc(N)n5]",> 5
9,"Cc1c(-c2ccnc(N)n2)sc2ccc(C(=O)NN3CCN(C)CC3)cc12 [Example 373, CN1CCN(CC1)NC(═O)c2ccc3sc(c(C)c3c2)-c4ccnc(N)n4]",< 5
10,"Cc1c(-c2ccnc(N)n2)sc2ccc(C(=O)N3CCC(N(C)C)C3)cc12 (stereo not shown) [Example 484, CN(C)C1CCN(C1)C(═O)c2ccc3sc(c(C)c3c2)-c4ccnc(N)n4]",< 5
11,"Cc1c(-c2ccnc(N)n2)sc2ccc(C(=O)NCc3ccc4c(c3)OCO4)cc12 [Example 420, Cc1c(sc2ccc(cc12)C(═O)NCc3ccc4OCOc4c3)-c5ccnc(N)n5]",< 5
12,"CCCCN(C)C(=O)c1ccc2sc(-c3ccnc(N)n3)c(C)c2c1 [Example 469, CCCCN(C)C(═O)c1ccc2sc(c(C)c2c1)-c3ccnc(N)n3]",< 5
13,"Cc1c(-c2ccnc(N)n2)sc2ccc(C(=O)N3CCN(c4cccc(C(F)(F)F)c4)CC3)cc12 [Example 566, Cc1c(sc2ccc(cc12)C(═O)N3CCN(CC3)c4cccc(c4)C(F)(F)F)-c5ccnc(N)n5]",> 5
14,"CCN(CCO)C(=O)c1ccc2sc(-c3ccnc(N)n3)c(C)c2c1 [Example 470, CCN(CCO)C(═O)c1ccc2sc(c(C)c2c1)-c3ccnc(N)n3]",< 5
15,"CCN(C(=O)c1ccc2sc(-c3ccnc(N)n3)c(C)c2c1)C1CCCCC1 [Example 493, CCN(C1CCCCC1)C(═O)c2ccc3sc(c(C)c3c2)-c4ccnc(N)n4]",< 5
16,"Cc1c(-c2ccnc(N)n2)sc2ccc(C(=O)N3CCC[C@@H]3CO)cc12 [Example 476, Cc1c(sc2ccc(cc12)C(═O)N3CCC[C@@H]3CO)-c4ccnc(N)n4]",< 5
17,"Cc1c(-c2ccnc(N)n2)sc2ccc(C(=O)N3CCCN(Cc4ccccc4)CC3)cc12 [Example 522, Cc1c(sc2ccc(cc12)C(═O)N3CCCN(CC3)Cc4ccccc4)-c5ccnc(N)n5]",< 5
18,"Cc1c(-c2ccnc(N)n2)sc2ccc(C(=O)N3CCN(c4ccccc4C#N)CC3)cc12 [Example 532, Cc1c(sc2ccc(cc12)C(═O)N3CCN(CC3)c4ccccc4C#N)-c5ccnc(N)n5]",> 5
19,"Cc1c(-c2ccnc(N)n2)sc2ccc(C(=O)NC(C)CCc3ccccc3)cc12 (stereo not shown) [Example 418, CC(CCc1ccccc1)NC(═O)c2ccc3sc(c(C)c3c2)-c4ccnc(N)n4]",> 5
20,"Cc1c(-c2ccnc(N)n2)sc2ccc(C(=O)NCC3(O)CCCCC3)cc12 [Example 438, Cc1c(sc2ccc(cc12)C(═O)NCC3(O)CCCCC3)-c4ccnc(N)n4]",< 5
21,"Cc1c(-c2ccnc(N)n2)sc2ccc(C(=O)N3CCCCC3CCO)cc12 (stereo not shown) [Example 497, Cc1c(sc2ccc(cc12)C(═O)N3CCCCC3CCO)-c4ccnc(N)n4]",> 5
22,"Cc1c(-c2ccnc(N)n2)sc2ccc(C(=O)NCc3cccc(Cl)c3)cc12 [Example 408, Cc1c(sc2ccc(cc12)C(═O)NCc3cccc(Cl)c3)-c4ccnc(N)n4]",< 5

# Continued, values first:
row,IC50 [µM],Structure (SMILES)
1,< 5,"Cc1c(-c2ccnc(N)n2)sc2ccc(C(=O)N(C)Cc3ccccc3)cc12 [Example 492, CN(Cc1ccccc1)C(═O)c2ccc3sc(c(C)c3c2)-c4ccnc(N)n4]"
2,< 5,"Cc1c(-c2ccnc(N)n2)sc2ccc(C(=O)NCC3CC3)cc12 [Example 340, Cc1c(sc2ccc(cc12)C(═O)NCC3CC3)-c4ccnc(N)n4]"
3,< 5,"Cc1c(-c2ccnc(N)n2)sc2ccc(C(=O)N3CCCC(C(N)=O)C3)cc12 (stereo not shown) [Example 496, Cc1c(sc2ccc(cc12)C(═O)N3CCCC(C3)C(N)═O)-c4ccnc(N)n4]"
4,< 5,"COc1ccc(CNC(=O)c2ccc3sc(-c4ccnc(N)n4)c(C)c3c2)cc1O [Example 451, COc1ccc(CNC(═O)c2ccc3sc(c(C)c3c2)-c4ccnc(N)n4)cc1O]"
5,< 5,"Cc1c(-c2ccnc(N)n2)sc2ccc(C(=O)NCc3ccc(F)c(F)c3)cc12 [Example 413, Cc1c(sc2ccc(cc12)C(═O)NCc3ccc(F)c(F)c3)-c4ccnc(N)n4]"
6,< 5,"Cc1c(-c2ccnc(N)n2)sc2ccc(C(=O)NCCN3CCOCC3)cc12 [Example 389, Cc1c(sc2ccc(cc12)C(═O)NCCN3CCOCC3)-c4ccnc(N)n4]"
7,< 5,"CCOC(=O)CC(C)NC(=O)c1ccc2sc(-c3ccnc(N)n3)c(C)c2c1 (stereo not shown) [Example 390, CCOC(═O)CC(C)NC(═O)c1ccc2sc(c(C)c2c1)-c3ccnc(N)n3]"
8,< 5,"Cc1c(-c2ccnc(N)n2)sc2ccc(C(=O)N(Cc3cccnc3)Cc3cccnc3)cc12 [Example 547, Cc1c(sc2ccc(cc12)C(═O)N(Cc3cccnc3)Cc4cccnc4)-c5ccnc(N)n5]"
9,< 5,"Cc1c(-c2ccnc(N)n2)sc2ccc(C(=O)NCCCO)cc12 [Example 343, Cc1c(sc2ccc(cc12)C(═O)NCCCO)-c3ccnc(N)n3]"
10,< 5,"Cc1c(-c2ccnc(N)n2)sc2ccc(C(=O)NC3CCCc4ccccc43)cc12 (stereo not shown) [Example 417, Cc1c(sc2ccc(cc12)C(═O)NC3CCCc4ccccc34)-c5ccnc(N)n5]"
11,< 5,"Cc1c(-c2ccnc(N)n2)sc2ccc(C(=O)NCc3cccnc3)cc12 [Example 364, Cc1c(sc2ccc(cc12)C(═O)NCc3cccnc3)-c4ccnc(N)n4]"
12,< 5,"CCC(CO)NC(=O)c1ccc2sc(-c3ccnc(N)n3)c(C)c2c1 (stereo not shown) [Example 353, CCC(CO)NC(═O)c1ccc2sc(c(C)c2c1)-c3ccnc(N)n3]"
13,< 5,"Cc1c(-c2ccnc(N)n2)sc2ccc(C(=O)NCCCc3ccccc3)cc12 [Example 397, Cc1c(sc2ccc(cc12)C(═O)NCCCc3ccccc3)-c4ccnc(N)n4]"
14,< 5,"Cc1c(-c2ccnc(N)n2)sc2ccc(C(=O)N3CCSC3)cc12 [Example 471, Cc1c(sc2ccc(cc12)C(═O)N3CCSC3)-c4ccnc(N)n4]"
15,< 5,"Cc1c(-c2ccnc(N)n2)sc2ccc(C(=O)N3CCN(c4ccc(C#N)cn4)CC3)cc12 [Example 533, Cc1c(sc2ccc(cc12)C(═O)N3CCN(CC3)c4ccc(cn4)C#N)-c5ccnc(N)n5]"
16,< 5,"CCOC(=O)C1CCCN(C(=O)c2ccc3sc(-c4ccnc(N)n4)c(C)c3c2)C1 (stereo not shown) [Example 510, CCOC(═O)C1CCCN(C1)C(═O)c2ccc3sc(c(C)c3c2)-c4ccnc(N)n4]"
17,< 5,"Cc1c(-c2ccnc(N)n2)sc2ccc(C(=O)N[C@H](CO)Cc3ccccc3)cc12 [Example 422, Cc1c(sc2ccc(cc12)C(═O)N[C@H](CO)Cc3ccccc3)-c4ccnc(N)n4]"
18,< 5,"CCOc1ccccc1CNC(=O)c1ccc2sc(-c3ccnc(N)n3)c(C)c2c1 [Example 425, CCOc1ccccc1CNC(═O)c2ccc3sc(c(C)c3c2)-c4ccnc(N)n4]"
19,< 5,"CCCCN(CC)C(=O)c1ccc2sc(-c3ccnc(N)n3)c(C)c2c1 [Example 477, CCCCN(CC)C(═O)c1ccc2sc(c(C)c2c1)-c3ccnc(N)n3]"
20,< 5,"Cc1c(-c2ccnc(N)n2)sc2ccc(C(=O)N3CCN(CCc4ccccc4)CC3)cc12 [Example 536, Cc1c(sc2ccc(cc12)C(═O)N3CCN(CC3)CCc4ccccc4)-c5ccnc(N)n5]"
